Data as given in ChEMBL document CHEMBL1145120, “Molecular modeling of the three-dimensional structure of dopamine 3 (D3) subtype receptor: discovery of novel and potent D3 ligands through a hybrid pharmacophore- and structure-based database searching approach” (J Med Chem, 2003).

Each compound was assayed against T1, D(3) dopamine receptor (Homo sapiens, UniProt P35462) (assay: biochemical).
T1 sequence (P35462 whole entry): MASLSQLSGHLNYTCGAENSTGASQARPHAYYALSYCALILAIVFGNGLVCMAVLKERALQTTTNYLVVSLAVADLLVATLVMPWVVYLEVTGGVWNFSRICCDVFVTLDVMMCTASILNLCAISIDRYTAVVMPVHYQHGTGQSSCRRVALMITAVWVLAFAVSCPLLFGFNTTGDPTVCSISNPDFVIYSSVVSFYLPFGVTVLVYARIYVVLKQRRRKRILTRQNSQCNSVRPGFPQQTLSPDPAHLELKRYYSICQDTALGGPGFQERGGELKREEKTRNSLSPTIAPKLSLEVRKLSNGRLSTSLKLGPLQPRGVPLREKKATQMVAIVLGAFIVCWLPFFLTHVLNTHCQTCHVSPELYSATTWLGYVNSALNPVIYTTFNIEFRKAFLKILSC

In order of falling Ki:
1. CCCN[C@@H]1CCc2c(OC)cccc2[C@@H]1C  70 nM
2. OC1(c2ccc(Cl)cc2)CCN(Cc2c[nH]c3ccccc23)CC1  60 nM
3. CCN(CC)CCNC(=O)c1cc(Cl)c(N)cc1OC [METOCLOPRAMIDE]  27 nM
4. CCCN(CCC)C1CCc2cc3c(cc2C1)OCC3 (centres undefined)  13 nM

These compounds were tested against T1, D(3) dopamine receptor (assay: not given).

`CCCCN1CCCC1CNC(=O)c1cc(C#N)c2ccccc2c1OC` (centres undefined) [NAFADOTRIDE] gave a Ki of 0.81 nM.

These compounds were tested against T1, D(3) dopamine receptor (assay: Compound was measured for its ability to compete with [3H]spiperone binding to the human Dopamine receptor D3 transfected in CHO cells).
Type: cell-based

In order of falling Ki:
1. CCN1CCC[C@H]1CNC(=O)c1c(O)c(Cl)cc(Cl)c1OC [RACLOPRIDE]  3.7 nM
2. CCCN1CCOC2c3cc(O)ccc3OC[C@H]21 (some centres undefined)  1.1 nM

Molecular target: T1, D(3) dopamine receptor
Test: not given
Remark: another data set of the same source

In order of rising Ki:
1. O=C(CCCN1CCN2Cc3[nH]c4ccccc4c3CC2C1)c1ccc(F)cc1 (centres undefined) [BIRIPERONE]  11 nM
2. CN(C)C(=O)C1(c2ccc(Cl)cc2)CCN(CCCC(=O)c2ccc(F)cc2)CC1 [AMIPERONE]  43.2 nM
3. O=c1[nH]c2ccccc2n1CCCN1CCN(C(c2ccccc2)c2ccccc2)CC1 [OXATOMIDE]  62.7 nM
4. O=C(CCCN1CCN2c3ccccc3CCC2C1)c1ccc(F)cc1 (centres undefined)  83.5 nM
5. O=C(CCCCN1CCN2c3ccccc3CCC2C1)c1ccccc1 (centres undefined)  297 nM
6. CCC(=O)OC1(c2ccccc2)CCN(CCCC(=O)c2ccccc2)CC1  429 nM
7. Cc1ccc(C)c2c1Sc1c(ccc3ccccc13)N2CCCN(C)C  442 nM
8. O=C(CCN1CCN2c3ccccc3CCC2C1)c1ccc(F)cc1 (centres undefined)  465 nM
9. O=C(OC1(c2nccc3ccccc23)CCN(CCc2ccccc2)CC1)c1ccccc1  1000 nM
10. CCCCN1C/C(=C\c2ccc(Br)cc2)C(=O)/C(=C/c2ccc(Br)cc2)C1  1000 nM
11. CCCN(CCC)CCC(O)c1cc2c(c3ccccc13)CCCC2 (centres undefined)  1260 nM
12. CCN(CC)CCCN(C)Cc1c(-c2ccccc2)oc(-c2ccccc2)c1Cl  1380 nM
13. Cc1ccc2c(c1)Sc1c(ccc3ccccc13)N2CCCN(C)C  1420 nM
14. OC(CCCN1CCN2CCc3[nH]c4ccccc4c3C2C1)c1ccc(F)cc1 (centres undefined)  2410 nM
15. CCCCCCCN1CCC(C(=O)CC)(c2cccc(O)c2)CC1  2610 nM
16. CCC(=O)OC1(c2ccccc2)CCN(CCC(=O)c2ccccc2)CC1C (centres undefined)  10000 nM
17. CCCCN(CC)CC(C(C)=O)C1=C(O)OC2C=CC=CC2C1=O (centres undefined)  10000 nM
18. c1ccc2c3c([nH]c2c1)CCN1CCN(CCc2ccncc2)CC31 (centres undefined)  10000 nM
19. CCn1c2ccccc2c2cc(NCCCN(C)C)ccc21  10000 nM
20. CCCN(CCC)CN1C(=O)c2ccccc2C1=O  10000 nM
21. CCCCN1CN(CCCC)CN(C(=S)c2c(Cl)cccc2Cl)C1  10000 nM
22. CCCCN1CSC(=S)N(Cc2ccccc2)C1  10000 nM
23. CCOc1ccc(NC(=O)C2CCCN(CCc3ccccc3)C2)cc1 (centres undefined)  10000 nM
24. CCCCN(CCCC)Cc1c(C)nc2cc(OC)ccc2c1O  10000 nM
25. CCCCCN1CCN(C(CC(=O)c2ccccc2)C(=O)c2ccccc2)CC1 (centres undefined)  10000 nM
26. N#CCCN(CCCN1CCOCC1)CN1C(=O)c2ccccc2C1=O  10000 nM
27. CC(=O)NCC1(c2ccccc2)CCN(CCCC(=O)c2ccc(F)cc2)CC1 [ACEPERONE]  10000 nM
